Reference: paper PMC11258486, “Phase 1 dose escalation study of the MDM2 inhibitor milademetan as monotherapy and in combination with azacitidine in patients with myeloid malignancies” (Cancer Medicine, 2024)
Structures can show the parent of a compound that is named as a salt. Where two headings read alike, the source gives them in different places.

Key:
Format in all cases: in vivo, human
[1] = Milademetan plasma pharmacokinetics; design: AUC0‐24h versus dose, power model estimated slope: unit not given beside the values; conditions: for half-life / Tmax: human, plasma; for half-life: read-out: geometric mean t1/2
Excerpt: For PK analysis, blood samples were collected at frequent intervals during Cycle 1 Days 1 and 15 in Part 1 (monotherapy), and on Day 5 or 8 (according to dosing schedule) and Day 14 in Part 1A, with sparse sampling on other days.

[2] = tested on: Macrophage inhibitory cytokine‐1 (MIC‐1); assay: Serum MIC‐1 pharmacodynamics; conditions: monotherapy, all cohorts
Excerpt: Macrophage inhibitory cytokine‐1 (MIC‐1) is a target of p53 transcriptional activation,[25] and, therefore, change in serum MIC‐1 levels was included as a PD endpoint, measured at multiple time points.

[3] = tested on: relapsed or refractory AML; assay: Treatment response in participants with AML (2017 European Leukemia Net recommendations)
Experimental: Treatment efficacy was assessed according to the 2017 European Leukemia Net recommendations for AML[23] and the 2006 International Working Group response criteria for MDS.[24] In participants with AML, efficacy outcomes included complete remission (CR), CR with incomplete blood count recovery (CRi), composite complete remission (CRc; CR + CRi), morphologic leukemia‐free state (MLFS), partial remission (PR), overall response rate (CRc + MLFS+PR), stable disease (SD), and treatment failure. Bone marrow biopsies/aspirates were obtained from all participants with AML on Day 1 of Cycles 2 and 3 and once every cycle until response and on Day 1 of Cycles 6, 9, and 12 in responding participants.

[4] = 160 mg QD for 15 days in Cycle 1
[5] = monotherapy, all studied doses, Cycle 1 Day 1

CC1(C)CCC2(CC1)N[C@@H](C(=O)N[C@@H]1CC[C@@H](C(N)=O)OC1)[C@H](c1ccnc(Cl)c1F)[C@]21C(=O)Nc2cc(Cl)ccc21 [Milademetan monotherapy, milademetan tosylate hydrate]
accumulation ratio (AR) based on AUC0‐24h [1, 4]: 1.29 | accumulation ratio (AR) based on C max [1, 4]: 1.21 | Increase of C max, AUC0‐24h and AUClast with dose ([1]; both monotherapy and combination arms): dose‐proportional | half-life ([1]; monotherapy, Cycle 1 Day 15): 432 to 1510 min | Tmax ([1]; Cohorts 1 through 3 (60, 90, 120 mg QD 21/28)): ~3 h | Tmax [1, 5]: 3 to 4.6 h | half-life [1, 5]: 774 to 1480 min | C max versus dose, power model estimated slope ([1]; monotherapy, Cycle 1 Day 1, 90% CI 0.44–1.08): 0.76 | AUC0‐24h versus dose, power model estimated slope ([1]; monotherapy, Cycle 1 Day 1, 90% CI 0.49–1.15): 0.82 | Time at which steady state is reached ([1]; repeated daily doses): ≤ 8 days | serum MIC‐1, mean (SD) fold change from baseline ([2]; Cycle 1 Day 8 (N = 53)): 6.4 (5.8) fold change | serum MIC‐1, mean (SD) fold change from baseline ([2]; Cycle 1 Day 15 (N = 49)): 5.1 (4.2) fold change | serum MIC‐1, mean (SD) fold change from baseline ([2]; Cycle 1 Days 21 through 22): 4.1 (3.3) fold change | AML: CR ([3]; Full Analysis Set): 2 (4%) n (%) | AML: CRi ([3]; Full Analysis Set): 1 (2%) n (%) | Participants who achieved CR with incomplete blood count recovery (CRi) ([3]; as given in the abstract): 2.1% | Participants who achieved complete remission (CR) ([3]; as given in the abstract): 4.2% | Participants with remission ([3]; as summed in the discussion): 4 n (%)
